The source of these data is PMC5865166, “MultiBacMam Bimolecular Fluorescence Complementation (BiFC) tool-kit identifies new small-molecule inhibitors of the CDK5-p25 protein-protein interaction (PPI)” (Scientific Reports, 2018).

One data set relates to U2OS cells. The data set can be described thus: Total cell number / cytotoxicity in BiFC experiments. Format: cell-based. Conditions: prohibited increasing the compound concentration to above 13 µM. How it is done:
(§1) Experiments were carried out in sterile, black clear-bottom 384 well plates (Cell carrier™ Perkin Elmer). U2OS cells were seed at density of cells 5 × 10^4 cells/well. After 3 hours, attached cells were transduced with 20 µl/well of viral stock dilution in PBS (Gibco) at multiplicity of infection (MOI) of 500 MOI. After were centrifuged during 30′ at 1500 rpm. Then plates were incubated at 37 °C during 5 hours. Thereafter the virus solution was replaced with 40 ul of complete growth medium containing 3 mM sodium butyrate (ABCR) with or without compound depending of the experiment. Cells were incubated for 16 hours at 37 °C with 5% of CO2. Finally plates were fixed with 4% paraformaldehyde (PFA) and stained with 5 µM Hoechst 33342 (Sigma-Aldrich). After 10 minutes of incubation at room temperature, plates were washed with PBS (GiBCO) and stored at 4 °C until imaging. For the immunostaining against p25 cells were permeabilized and stained with PBS, BSA 0.2% and Triton-X 100 0.5% and p35 (C-19) antibody from Santa Cruz Biotechnology (diluted 1:100 and incubated at 4 °C o/n). Then, the plates were incubated for 2 hrs at 37 °C with a donkey anti-rabbit conjugated with the alexa fluor 647 secondary antibody (Invitrogen). Finally plates were washed with PBS and stored at 4 °C until imaging.
Supplementary Figure S2. Total cell number in BiFC experiments. […]

A further data set has as its target T1, CDK5-p25 PPI (Homo sapiens, UniProt Q00535+Q15078, D144N).
T1 construct: The cleavage of p35 by the protease calpain generates p25; expressed in transfected cells; host or cells: U2OS cells transduced with MultiBacMam baculovirus
The data set can be described thus: MultiBacMam BiFC assay of CDK5-p25 PPI in transduced U2OS cells (VN-CDK5(D144N)/VC-p25). To be noted: mammalian cell-based BiFC assay, versus published yeast-based data. The method, then: as §1, with “Then, the plates were incubated for 2 hrs at 37 °C with a donkey anti-rabbit conjugated with the alexa fluor 647 secondary antibody (Invitrogen). Finally plates were washed with PBS and stored at 4 °C until imaging.” left out
(§2) Cells were transduced or transfected and fixed as described above. Cells were stored in PBS until automated fluorescence microscopy analysis with Opera. Fluorescence images were acquired using the Opera QEHS reader (Perkin-Elmer) using a 20x objective. […]

The next data set deals with T2, MLKL-RIPK3 PPI (Homo sapiens, UniProt Q8NB16+Q9Y572).
T2 construct: expressed in transfected cells; host or cells: U2OS cells transduced with MultiBacMam baculovirus
T2 sequence (Q8NB16 whole entry): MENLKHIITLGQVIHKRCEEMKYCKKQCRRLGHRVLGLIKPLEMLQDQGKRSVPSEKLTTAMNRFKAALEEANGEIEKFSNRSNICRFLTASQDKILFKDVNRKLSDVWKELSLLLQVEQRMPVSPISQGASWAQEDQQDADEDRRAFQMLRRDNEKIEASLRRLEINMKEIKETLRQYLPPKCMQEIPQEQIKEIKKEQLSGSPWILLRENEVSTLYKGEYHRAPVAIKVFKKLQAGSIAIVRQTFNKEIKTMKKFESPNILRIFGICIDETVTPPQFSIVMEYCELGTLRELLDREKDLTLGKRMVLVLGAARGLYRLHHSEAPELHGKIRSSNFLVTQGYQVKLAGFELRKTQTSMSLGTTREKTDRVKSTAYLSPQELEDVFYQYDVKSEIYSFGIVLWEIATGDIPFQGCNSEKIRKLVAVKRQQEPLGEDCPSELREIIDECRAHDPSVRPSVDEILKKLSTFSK
T2 sequence (Q9Y572 whole entry): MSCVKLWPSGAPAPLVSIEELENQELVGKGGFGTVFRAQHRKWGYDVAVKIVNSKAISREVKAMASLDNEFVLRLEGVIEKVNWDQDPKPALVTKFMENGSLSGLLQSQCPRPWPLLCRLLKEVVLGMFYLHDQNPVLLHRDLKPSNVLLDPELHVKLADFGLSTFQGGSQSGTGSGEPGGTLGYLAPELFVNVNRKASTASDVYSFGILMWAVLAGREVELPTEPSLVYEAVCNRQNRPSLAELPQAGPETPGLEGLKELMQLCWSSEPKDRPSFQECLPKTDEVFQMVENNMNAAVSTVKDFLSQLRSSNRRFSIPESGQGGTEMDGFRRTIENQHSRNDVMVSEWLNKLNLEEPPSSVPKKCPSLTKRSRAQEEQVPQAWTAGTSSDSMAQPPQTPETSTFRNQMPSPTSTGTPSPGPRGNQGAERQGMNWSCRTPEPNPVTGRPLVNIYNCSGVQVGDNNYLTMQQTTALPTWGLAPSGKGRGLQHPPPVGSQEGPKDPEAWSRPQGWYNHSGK
The data set is described as follows: MLKL-RIPK3 BiFC counter assay in transduced U2OS cells (VN-MLKL/VC-RIPK3). Format: cell-based. Conditions: counter screen, 16h treatment; CPDs even at high concentration. How it is done:
as §1, with “For the immunostaining against p25 cells were permeabilized and stained with PBS, BSA 0.2% and Triton-X 100 0.5% and p35 (C-19) antibody from Santa Cruz Biotechnology (diluted 1:100 and incubated at 4 °C o/n). Then, the plates were incubated for 2 hrs at 37 °C with a donkey anti-rabbit conjugated with the alexa fluor 647 secondary antibody (Invitrogen). Finally plates were washed with PBS and stored at 4 °C until imaging.” left out
as §2
(§3) Supplementary Figure S3. […] Then cells were treated with indicated amounts of compounds for 16h and percentage of BiFC positive cells was determined by High Content image analysis.

Another data set deals with Tau dimerization. The data set can be described thus: Tau BiFC counter assay in transduced U2OS cells (VN-TAU/VC-TAU). It counts as cell-based. Conditions: counter screen, 16h treatment; CPDs even at high concentration. The method, then: as §1, with “For the immunostaining against p25 cells were permeabilized and stained with PBS, BSA 0.2% and Triton-X 100 0.5% and p35 (C-19) antibody from Santa Cruz Biotechnology (diluted 1:100 and incubated at 4 °C o/n). Then, the plates were incubated for 2 hrs at 37 °C with a donkey anti-rabbit conjugated with the alexa fluor 647 secondary antibody (Invitrogen). Finally plates were washed with PBS and stored at 4 °C until imaging.” left out
as §2, §3

T1 sequence (Q00535 whole entry D144N): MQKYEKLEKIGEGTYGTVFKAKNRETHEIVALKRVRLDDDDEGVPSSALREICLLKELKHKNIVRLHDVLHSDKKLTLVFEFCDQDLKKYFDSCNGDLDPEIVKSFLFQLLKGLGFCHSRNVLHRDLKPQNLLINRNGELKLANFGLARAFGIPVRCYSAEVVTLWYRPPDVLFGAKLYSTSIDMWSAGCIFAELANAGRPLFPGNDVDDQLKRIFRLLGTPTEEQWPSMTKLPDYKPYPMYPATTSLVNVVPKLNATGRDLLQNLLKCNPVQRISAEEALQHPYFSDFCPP
T1 sequence (Q15078 99-307 limits assumed): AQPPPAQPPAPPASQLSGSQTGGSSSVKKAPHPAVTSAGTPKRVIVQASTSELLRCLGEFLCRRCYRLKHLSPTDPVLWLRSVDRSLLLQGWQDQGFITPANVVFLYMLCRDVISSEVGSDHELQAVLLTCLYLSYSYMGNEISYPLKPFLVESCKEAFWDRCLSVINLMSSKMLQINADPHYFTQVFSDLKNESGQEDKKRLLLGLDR

For `C[C@@]12CCC[C@H]1[C@@H]1CC[C@H]3C[C@H](N)CC[C@]3(C)[C@H]1CC2` [3α-amino-5α-androstane], the “toxic effect on the cells” value with U2OS cells is reported as “toxic effect”. Further, the “inhibitory effect on CDK5-p25 PPI” value at CDK5-p25 PPI is recorded as “did not reproduce this published data”.
Take `CC(C)CC(=O)Nc1[nH]nc2c1CN(C(=O)C1CCN(C)CC1)C2(C)C` [pHA-793887]: the “effect on MLKL-RIPK3 PPI” value at MLKL-RIPK3 PPI is listed as “non-specific fluorescence complementation inhibitor”. In addition, the “effect on Tau dimerization” value with Tau dimerization is listed as “non-specific fluorescence complementation inhibitor”.
